The values below come from patent publication US20230159538A1, “PYRROLIDINE-PYRAZOLES AS PYRUVATE KINASE ACTIVATORS” (Global Blood Therapeutics, Inc., priority 2020, published 2023).

Usually AC50 stands for the midpoint of the concentration-response curve, whichever way the signal moves. A low value points to greater potency.

The experiment addresses T1, Human pyruvate kinase R (PKR) (Homo sapiens, UniProt P30613).
T1 construct: Human pyruvate kinase R (PKR), residues 14-574; 6x-His (N, cleaved yes); 8x-Arg (N, cleaved yes); SUMO (N, cleaved yes); host or cells: E. coli
The experiment in a line: Biochemical assay for activation of pyruvate kinase R (Kinase-Glo luminescence, ATP generation). Particulars: for AC50: 0.1 nM PKR, 2 mM FBP, 0.3 mM ADP, 0.1 mM PEP; for PKR % activation: maximal activation level relative to the activation level achieved by AG-348 @ 10 μM. As to the method: Proteins were translated as fusions with 6×-His, 8×-Arg, and SUMO at the N-terminus. […] All proteins were cloned, expressed in E. coli, and purified using similar protocols. Cells were grown at 30° C. in Luria-Bertani broth supplemented with 0.4% glucose to OD600=0.8 and induced with 0.4 mM IPTG at 16° C. for 18 hours. Cells were harvested by centrifugation, resuspended in 50 mM potassium phosphate pH 8.0, 500 mM NaCl, 25 mM imidazole pH 8.0, and 3 mM β-mercaptoethanol. Cells were lysed using a LM20 microfluidizer from Microfluidics (Westwood, Mass.). The crude lysate was immediately supplemented with 0.2 mM phenylmethylsulfonyl fluoride (PMSF) and centrifuged at 20,000 g for 20 minutes. The soluble fraction was subsequently incubated with 2 mL Ni-NTA (GE Healthcare) per 1,000 ODs for 1 hour at 4° C. Following incubation with the Ni-NTA resin, lysate was removed by pelleting resin at 2,500 g for 3 minutes and washed 3 times with 9 bed volumes of 50 mM potassium phosphate pH 8.0, 500 mM NaCl, 25 mM imidazole, and 3 mM β-mercaptoethanol. Following the batch wash Ni-NTA resin was loaded onto a gravity column and His-tagged protein was eluted with 6 bed volumes of 10 mM Tris/HCl pH 8.0, 200 mM NaCl, 500 mM imidazole, and 3 mM β-mercaptoethanol. Eluted protein was dialyzed overnight against 10 mM Tris/HCl pH 8.0, 200 mM NaCl, and 1 mM DTT and the 6×-His-8×-Arg-SUMO-tag was cleaved using a 20:1 molar ratio of protein:3C protease. The protein was purified by anion exchange chromatography on a HiTrapQ or MonoQ 10/100 GL column (GE Healthcare) via a linear NaCl gradient and twice by size exclusion chromatography using a Superdex S200 26/60 column (GE Healthcare) run in 10 mM Tris/HCl pH 8.0, 200 mM NaCl, 10 mM MgCl2, 1 mM DTT. Proteins were concentrated to ˜12 mg/mL for crystallization and flash frozen for storage.
Biochemical Assay for Activation of Pyruvate Kinase R
Activation of pyruvate kinase R (PKR) and pyruvate kinase M2 (PKM2) were measured using a luminescence based measurement of ATP generation and the Kinase-Glo luminescent kinase reagent kit.
A general note: Kinase-Glo reads ATP consumption through a luciferase reaction.

T1 sequence (P30613 14-574): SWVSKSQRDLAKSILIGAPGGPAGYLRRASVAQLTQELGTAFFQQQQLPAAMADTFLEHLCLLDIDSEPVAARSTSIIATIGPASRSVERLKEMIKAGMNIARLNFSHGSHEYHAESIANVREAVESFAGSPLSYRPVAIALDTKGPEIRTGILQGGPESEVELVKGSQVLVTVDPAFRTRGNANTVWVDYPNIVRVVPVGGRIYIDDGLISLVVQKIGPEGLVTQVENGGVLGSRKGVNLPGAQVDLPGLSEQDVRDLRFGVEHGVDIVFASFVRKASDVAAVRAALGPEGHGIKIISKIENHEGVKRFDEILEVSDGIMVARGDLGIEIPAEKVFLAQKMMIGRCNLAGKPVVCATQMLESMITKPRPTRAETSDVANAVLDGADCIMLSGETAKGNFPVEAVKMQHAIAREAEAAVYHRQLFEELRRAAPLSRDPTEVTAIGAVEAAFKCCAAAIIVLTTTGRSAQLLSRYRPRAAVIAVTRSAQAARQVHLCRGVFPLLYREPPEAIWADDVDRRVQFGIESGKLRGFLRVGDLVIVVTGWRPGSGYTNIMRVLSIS

The molecule `O=C([C@H](CO)c1ncccc1F)N1Cc2cn(S(=O)(=O)c3ccc4ncccc4c3)nc2C1` (single isomer, unassigned) [Compound 102, (2S)-2-(3-fluoropyridin-2-yl)-3-hydroxy-1-[2-(quinoline-6-sulfonyl)-2H,4H,5H,6H-pyrrolo[3,4-c]pyrazol-5-yl]propan-1-one or (2R)-2-(3-fluoropyridin-2-yl)-3-hydroxy-1-[2-(quinoline-6-sulfonyl)-2H,4H,5H,6H-pyrrolo[3,4-c]pyrazol-5-yl]propan-1-one] displayed an AC50 of 12 nM and a PKR % activation of 81%.

For `O=C([C@H](CO)c1ncccc1F)N1Cc2cn(S(=O)(=O)c3ccc4ncccc4c3)nc2C1` (single isomer, unassigned) [Compound 103, (2S)-2-(3-fluoropyridin-2-yl)-3-hydroxy-1-[2-(quinoline-6-sulfonyl)-2H,4H,5H,6H-pyrrolo[3,4-c]pyrazol-5-yl]propan-1-one or (2R)-2-(3-fluoropyridin-2-yl)-3-hydroxy-1-[2-(quinoline-6-sulfonyl)-2H,4H,5H,6H-pyrrolo[3,4-c]pyrazol-5-yl]propan-1-one], the AC50 stood at 220 nM and the PKR % activation was 41%.

`O=C([C@@H](c1ccccc1)N1CCOCC1)N1Cc2cn(S(=O)(=O)c3ccc(OC(F)F)cc3)nc2C1` (single isomer, unassigned) [Compound 107, (2R)-1-{2-[4-(difluoromethoxy)benzenesulfonyl]-2H,4H,5H,6H-pyrrolo[3,4-c]pyrazol-5-yl}-2-(morpholin-4-yl)-2-phenylethan-1-one or (2S)-1-{2-[4-(difluoromethoxy)benzenesulfonyl]-2H,4H,5H,6H-pyrrolo[3,4-c]pyrazol-5-yl}-2-(morpholin-4-yl)-2-phenylethan-1-one] had a concentration at half-maximal activity (AC50) of more than 10000 nM and a PKR % activation of 0%.

With `O=C([C@@H](c1ccccc1)N1CCOCC1)N1Cc2cn(S(=O)(=O)c3ccc(OC(F)F)cc3)nc2C1` (single isomer, unassigned) [Compound 108, (2R)-1-{2-[4-(difluoromethoxy)benzenesulfonyl]-2H,4H,5H,6H-pyrrolo[3,4-c]pyrazol-5-yl}-2-(morpholin-4-yl)-2-phenylethan-1-one or (2S)-1-{2-[4-(difluoromethoxy)benzenesulfonyl]-2H,4H,5H,6H-pyrrolo[3,4-c]pyrazol-5-yl}-2-(morpholin-4-yl)-2-phenylethan-1-one], the AC50 was more than 10000 nM and the PKR % activation worked out at 0%.

`C[C@@H](O)[C@H](C(=O)N1Cc2cn(S(=O)(=O)c3ccc4ncsc4c3)nc2C1)c1ccccc1` [Compound 4] returned an AC50 of 1810 nM and a PKR % activation of 100%.

Consider `C[C@@H](O)[C@H](C(=O)N1Cc2cn(S(=O)(=O)c3ccc4ncsc4c3)nc2C1)c1ccccc1` [Compound 6], for which the activity was half-maximal at 2530 nM (AC50) and the PKR % activation is reported as 150%.

`C[C@@H](O)[C@H](C(=O)N1Cc2cn(S(=O)(=O)c3ccc(OC(F)F)cc3)nc2C1)c1ccccc1` [Compound 9] came in with an AC50 of 147 nM and a PKR % activation of 131%.

Take `C[C@@H](O)[C@H](C(=O)N1Cc2cn(S(=O)(=O)c3ccc(OC(F)F)cc3)nc2C1)c1ccccc1` [Compound 10]: the activity was half-maximal at 455 nM (AC50) and the PKR % activation was 165%.

Molecule `C[C@@H](O)[C@H](C(=O)N1Cc2cn(S(=O)(=O)c3ccc(OC(F)F)cc3)nc2C1)c1ccccc1` [Compound 11] had an AC50 of 7270 nM and a PKR % activation of 164%.

For the molecule `NCC(C(=O)N1Cc2cn(S(=O)(=O)c3ccc4ncsc4c3)nc2C1)c1ccccc1` (stereo not drawn) [Compound 13, 3-amino-1-[2-(1,3-benzothiazole-6-sulfonyl)-2H,4H,5H,6H-pyrrolo[3,4-c]pyrazol-5-yl]-2-phenylpropan-1-one], the AC50 turned out to be 167 nM.

Turning to `N[C@@H](C(=O)N1Cc2cn(S(=O)(=O)c3ccc4c(c3)NCCO4)nc2C1)c1ccccc1` [Compound 16, (2R)-2-amino-1-[2-(3,4-dihydro-2H-1,4-benzoxazine-6-sulfonyl)-2H,4H,5H,6H-pyrrolo[3,4-c]pyrazol-5-yl]-2-phenylethan-1-one], the half-maximal activity concentration (AC50) turned out to be 156 nM.

As to `O=C(N1Cc2cn(S(=O)(=O)c3ccc4ncsc4c3)nc2C1)C1(c2ccccc2)CCOC1` (stereo not drawn) [Compound 18, 6-{[5-(3-phenyloxolane-3-carbonyl)-2H,4H,5H,6H-pyrrolo[3,4-c]pyrazol-2-yl]sulfonyl}-1,3-benzothiazole], the AC50 worked out at 83 nM.

In turn, `O=C(N1Cc2cn(S(=O)(=O)c3ccc4ncsc4c3)nc2C1)C1(c2ccccc2)COCCN1` (stereo not drawn) [Compound 21, 6-{[5-(3-phenylmorpholine-3-carbonyl)-2H,4H,5H,6H-pyrrolo[3,4-c]pyrazol-2-yl]sulfonyl}-1,3-benzothiazole] displayed an AC50 of 209 nM.

As for `N[C@@H](C(=O)N1Cc2cn(S(=O)(=O)c3ccc4ncsc4c3)nc2C1)c1ccc(F)cc1` [Compound 28, (2R)-2-amino-1-[2-(1,3-benzothiazole-6-sulfonyl)-2H,4H,5H,6H-pyrrolo[3,4-c]pyrazol-5-yl]-2-(4-fluorophenyl)ethan-1-one], half-maximal activity (AC50) was put at 13 nM.

The molecule `N[C@@H](C(=O)N1Cc2cn(S(=O)(=O)c3ccc(OC(F)F)cc3)nc2C1)c1cccc(OC(F)(F)F)c1` [Compound 30, (2R)-2-amino-1-{2-[4-(difluoromethoxy)benzenesulfonyl]-2H,4H,5H,6H-pyrrolo[3,4-c]pyrazol-5-yl}-2-[3-(trifluoromethoxy)phenyl]ethan-1-one] gave an AC50 of 371 nM.

Molecule `CC(C)(O)[C@H](C(=O)N1Cc2cn(S(=O)(=O)c3ccc4occc4c3)nc2C1)c1ccccc1` [Compound 33, (2R)-1-[2-(1-benzofuran-5-sulfonyl)-2H,4H,5H,6H-pyrrolo[3,4-c]pyrazol-5-yl]-3-hydroxy-3-methyl-2-phenylbutan-1-one] gave an AC50 of 130 nM.

The molecule `CC(C)(O)[C@@H](C(=O)N1Cc2cn(S(=O)(=O)c3ccc4occc4c3)nc2C1)c1ccccc1` [Compound 34, (2S)-1-[2-(1-benzofuran-5-sulfonyl)-2H,4H,5H,6H-pyrrolo[3,4-c]pyrazol-5-yl]-3-hydroxy-3-methyl-2-phenylbutan-1-one] displayed an AC50 of 210 nM.

In turn, `N[C@H](C(=O)N1Cc2cn(S(=O)(=O)c3ccc4ncsc4c3)nc2C1)c1ccccc1F` [Compound 38, (2S)-2-amino-1-[2-(1,3-benzothiazole-6-sulfonyl)-2H,4H,5H,6H-pyrrolo[3,4-c]pyrazol-5-yl]-2-(2-fluorophenyl)ethan-1-one] gave a concentration at half-maximal activity (AC50) of 270 nM.

The molecule `N[C@@H](C(=O)N1Cc2cn(S(=O)(=O)c3ccc(OC(F)F)cc3)nc2C1)c1ccc(F)cc1` [Compound 49, (2R)-2-amino-1-{2-[4-(difluoromethoxy)benzenesulfonyl]-2H,4H,5H,6H-pyrrolo[3,4-c]pyrazol-5-yl}-2-(4-fluorophenyl)ethan-1-one] registered an AC50 of 17 nM.

`N[C@@H](C(=O)N1Cc2cn(S(=O)(=O)c3ccc(OC(F)F)cc3)nc2C1)c1cccc(Cl)c1` [Compound 50, (2R)-2-amino-2-(3-chlorophenyl)-1-{2-[4-(difluoromethoxy)benzenesulfonyl]-2H,4H,5H,6H-pyrrolo[3,4-c]pyrazol-5-yl}ethan-1-one]: half-maximal activity (AC50) was put at 71 nM.

Consider `N[C@@H](C(=O)N1Cc2cn(S(=O)(=O)c3ccc(OC(F)F)cc3)nc2C1)c1ccc(Cl)cc1` [Compound 51, (2R)-2-amino-2-(4-chlorophenyl)-1-{2-[4-(difluoromethoxy)benzenesulfonyl]-2H,4H,5H,6H-pyrrolo[3,4-c]pyrazol-5-yl}ethan-1-one], for which half-maximal activity (AC50) was put at 23 nM.

In turn, `N[C@@H](C(=O)N1Cc2cn(S(=O)(=O)c3ccc4ncsc4c3)nc2C1)c1ccccc1Cl` [Compound 52, (2R)-2-amino-1-[2-(1,3-benzothiazole-6-sulfonyl)-2H,4H,5H,6H-pyrrolo[3,4-c]pyrazol-5-yl]-2-(2-chlorophenyl)ethan-1-one] yielded an AC50 of 13 nM.

`N[C@@H](C(=O)N1Cc2cn(S(=O)(=O)c3ccc4ncsc4c3)nc2C1)c1cccc(Cl)c1` [Compound 53, (2R)-2-amino-1-[2-(1,3-benzothiazole-6-sulfonyl)-2H,4H,5H,6H-pyrrolo[3,4-c]pyrazol-5-yl]-2-(3-chlorophenyl)ethan-1-one] came in with an AC50 of 36 nM.

`N[C@@H](C(=O)N1Cc2cn(S(=O)(=O)c3ccc(OC(F)F)cc3)nc2C1)c1ccccc1F` [Compound 56, (2R)-2-amino-1-{2-[4-(difluoromethoxy)benzenesulfonyl]-2H,4H,5H,6H-pyrrolo[3,4-c]pyrazol-5-yl}-2-(2-fluorophenyl)ethan-1-one] came in with a half-maximal activity concentration (AC50) of 30 nM.
